Results: US9834512B2, “(22E)-2-methylene-26,27-cyclo-22-dehydro-1α-hydroxy-19-norvitamin D3 derivatives” (WISCONSIN ALUMNI RESEARCH FOUNDATION, priority 2011, dated 2017)
“Also recorded” adds a separate entry of the source. Where two headings read alike, the source gives them in different places.

How the values were obtained:
Sprague-Dawley rats [1] = assay: Bone calcium mobilization (serum calcium); assay type: in vivo, rat; conditions: for Bone calcium mobilization activity: rat, intraperitoneal, at the doses tested
Description: (§1) Male, weanling Sprague-Dawley rats were placed on Diet 11 (0.47% Ca) diet+AEK oil for one week followed by Diet 11 (0.02% Ca)+AEK oil for 3 weeks. The rats were then switched to a diet containing 0.47% Ca for one week followed by two weeks on a diet containing 0.02% Ca. Dose administration began during the last week on 0.02% calcium diet. Four consecutive intraperitoneal doses were given approximately 24 hours apart. Twenty-four hours after the last dose, blood was collected from the severed neck and the concentration of serum calcium determined as a measure of bone calcium mobilization. The first 10 cm of the intestine was also collected for intestinal calcium transport analysis using the everted gut sac method.
(§2) Antagonism was tested by administering a combination of 1,25(OH)2D3 and the putative antagonist to the animal simultaneously.

Sprague-Dawley rats [2] = assay: Intestinal calcium transport (everted gut sac); assay type: in vivo, rat; conditions: for Intestinal calcium transport activity compared with native hormone: rat, intraperitoneal; for Intestinal calcium transport activity at very high doses: very high doses (e.g., 2340-2600 pmol)
Description: as §1, §2

[3] = system: 24-hydroxylase (24OHase) gene promoter; assay: In vitro 24-hydroxylase transcription assay (luciferase reporter, ROS 17/2.8 bone cells); assay type: cell-based; conditions: for Antagonism of gene transactivation stimulated by native hormone: combined with 1,25(OH)2D3; for 24OHase Transcription (Relative Activity): native hormone value / working example value, same assay
Description: Transcription activity was measured in ROS 17/2.8 (bone) cells that were stably transfected with a 24-hydroxylase (24OHase) gene promoter upstream of a luciferase reporter gene (Arbour et al., 1998). Cells were given a range of doses. Sixteen hours after dosing, the cells were harvested and luciferase activities were measured using a luminometer. RLU=relative luciferase units.

vitamin D receptor [4] = molecular target: T1, vitamin D receptor (Rattus norvegicus, UniProt P13053); assay: Competitive vitamin D receptor binding; conditions: for Competitive VDR Binding (Relative Activity): native hormone value / working example value, same assay; for Competitive VDR Binding (Relative Activity) / Ki: present compounds; for Ki: read-out: Competitive VDR Binding, Ki; for Binding to the nuclear vitamin D receptor compared with native hormone: versus 1,25(OH)2D3; for VDR binding activity relative to CN-67 (ratio of relative activities): versus CN-67
T1 construct: Full-length recombinant rat receptor was expressed in E. coli; His tag (C); made in house; host or cells: E. coli BL21(DE3) Codon Plus RIL
T1 sequence (P13053 1-423): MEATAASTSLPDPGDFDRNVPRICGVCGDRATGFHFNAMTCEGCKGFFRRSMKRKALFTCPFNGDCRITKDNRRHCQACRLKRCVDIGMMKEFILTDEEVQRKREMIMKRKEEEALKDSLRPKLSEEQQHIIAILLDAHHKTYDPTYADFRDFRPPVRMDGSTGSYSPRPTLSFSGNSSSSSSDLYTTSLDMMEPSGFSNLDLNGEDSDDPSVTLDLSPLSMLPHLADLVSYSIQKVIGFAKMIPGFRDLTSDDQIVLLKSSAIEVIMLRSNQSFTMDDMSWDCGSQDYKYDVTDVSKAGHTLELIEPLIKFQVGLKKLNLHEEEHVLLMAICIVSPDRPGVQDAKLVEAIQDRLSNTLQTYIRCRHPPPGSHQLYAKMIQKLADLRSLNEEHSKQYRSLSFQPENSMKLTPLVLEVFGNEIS
Description: Full-length recombinant rat receptor was expressed in E. coli BL21(DE3) Codon Plus RIL cells and purified to homogeneity using two different column chromatography systems. The first system was a nickel affinity resin that utilizes the C-terminal histidine tag on this protein. The protein that was eluted from this resin was further purified using ion exchange chromatography (S-Sepharose Fast Flow). Aliquots of the purified protein were quick frozen in liquid nitrogen and stored at −80° C. until use. For use in binding assays, the protein was diluted in TEDK50 (50 mM Tris, 1.5 mM EDTA, pH 7.4, 5 mM DTT, 150 mM KCl) with 0.1% Chaps detergent. The receptor protein and ligand concentration was optimized such that no more than 20% of the added radiolabeled ligand was bound to the receptor.
Unlabeled ligands were dissolved in ethanol and the concentrations determined using UV spectrophotometry (1,25(OH)2D3: molar extinction coefficient=18,200 and λmax=265 nm; Analogs: molar extinction coefficient=42,000 and λmax=252 nm). Radiolabeled ligand (^3H-1,25(OH)2D3, ˜159 Ci/mmole) was added in ethanol at a final concentration of 1 nM.
Radiolabeled and unlabeled ligands were added to 100 mcl of the diluted protein at a final ethanol concentration of ≦10%, mixed and incubated overnight on ice to reach binding equilibrium. The following day, 100 mcl of hydroxylapatite slurry (50%) was added to each tube and mixed at 10-minute intervals for 30 minutes. The hydroxylapaptite was collected by centrifugation and then washed three times with Tris-EDTA buffer (50 mM Tris, 1.5 mM EDTA, pH 7.4) containing 0.5% Titron X-100. After the final wash, the pellets were transferred to scintillation vials containing 4 ml of Biosafe II scintillation cocktail, mixed and placed in a scintillation counter. Total binding was determined from the tubes containing only radiolabeled ligand.

HL-60 cells = assay: HL-60 differentiation (nitro blue tetrazolium reduction); assay type: cell-based, human; conditions: for EC50: Homo sapiens, HL-60; for HL-60 cell differentiation activity: compound alone; for HL-60 Differentiation (Relative Activity): native hormone value / working example value, same assay
Description: The study drugs were dissolved in ethanol and the concentrations determined using UV spectrophotometry. Serial dilutions were prepared so that a range of drug concentrations could be tested without changing the final concentration of ethanol (≦0.2%) present in the cell cultures.
Human promyelocytic leukemia (HL60) cells were grown in RPMI-1640 medium containing 10% fetal bovine serum. The cells were incubated at 37° C. in the presence of 5% CO2.
HL60 cells were plated at 1.2×10^5 cells/ml. Eighteen hours after plating, cells in duplicate were treated with the drug. Four days later, the cells were harvested and a nitro blue tetrazolium reduction assay was performed (Collins et al., 1979; J. Exp. Med. 149:969-974). The percentage of differentiated cells was determined by counting a total of 200 cells and recording the number that contained intracellular black-blue formazan deposits. Verification of differentiation to monocytic cells was determined by measuring phagocytic activity (data not shown).
Antagonism was tested by adding a combination of 1,25(OH)2D3 and the putative antagonist in the same well keeping the final ethanol concentration the same.

vitamin D receptor [5] = molecular target: T1, vitamin D receptor; conditions: compounds of U.S. Pat. No. 7,915,242; read-out: Competitive VDR Binding, Ki; cited from earlier work
[6] = combined with 1,25(OH)2D3, systemic administration
[7] = when administered with 1,25(OH)2D3, present compounds

| EC50 ([3]; present compounds) | Competitive VDR Binding (Relative Activity) (vitamin D receptor [4]) | Ki (vitamin D receptor [4]) | VDR binding activity relative to CN-67 (ratio of relative activities) (vitamin D receptor [4]) | EC50 (HL-60 cells; present compounds) | SMILES | Bone calcium mobilization activity (Sprague-Dawley rats [1]) | Intestinal calcium transport activity compared with native hormone (Sprague-Dawley rats [2]) | Intestinal calcium transport activity at very high doses (Sprague-Dawley rats [2]) | Antagonism of gene transactivation stimulated by native hormone [3] | 24OHase Transcription (Relative Activity) ([3]; present compounds) | Binding to the nuclear vitamin D receptor compared with native hormone (vitamin D receptor [4]) | HL-60 cell differentiation activity (HL-60 cells) | HL-60 Differentiation (Relative Activity) (HL-60 cells; present compounds) | Ki (vitamin D receptor [5]) | further results |
| --- | --- | --- | --- | --- | --- | --- | --- | --- | --- | --- | --- | --- | --- | --- | --- |
| 2 nM | 0.17 | 0.6 nM | ≈ 11 times | 30 nM | C=C1[C@H](O)CC(=C/C=C2\CCC[C@]3(C)[C@@H]([C@H](C)/C=C/C(=O)C4(C(=O)CCC(C)C)CC4)CC[C@@H]23)C[C@H]1O [PP-48, (20R,22E)-2-methylene-25-(4-methylpentanoyl)-24-oxo-26,27-cyclo-22-dehydro-1α-hydroxy-19-norvitamin D3] | essentially no ability to mobilize calcium from bone; also recorded: essentially inactive in releasing bone calcium stores; also recorded: neither PP-48 nor AS-51 demonstrate any appreciable ability to mobilize calcium from bone | potency similar to that of the native hormone | increased intestinal calcium transport activity at very high doses | no antagonistic activity | 0.1 | lower affinity relative to 1,25(OH)2D3; also recorded: lower affinity than the native hormone; also recorded: bind the vitamin D receptor | agonistic behavior; also recorded: active in causing HL-60 differentiation | 0.1 |  | Intestinal calcium transport activity at moderate doses (Sprague-Dawley rats [2]; moderate doses): only PP-48 increased such transport significantly at moderate doses; 24-hydroxylase transcription activity ([3]; compound alone): agonistic behavior; also recorded: exhibits activity in 24-hydroxylase transcription, albeit reduced from the native hormone |
| 6 nM | 1.0 | 0.1 nM | ≈ 67 times | > 1000 nM | C=C1[C@H](O)CC(=C/C=C2\CCC[C@]3(C)[C@@H]([C@H](C)/C=C/[C@@H](O)C4(C(=O)SCCCC)CC4)CC[C@@H]23)C[C@H]1O [AS-51, (20R,22E,24R)-25-carbobutylsulfanyl-2-methylene-26,27-cyclo-22-dehydro-1α,24-dihydroxy-19-norvitamin D3] | essentially inactive in releasing bone calcium stores; also recorded: neither PP-48 nor AS-51 demonstrate any appreciable ability to mobilize calcium from bone | somewhat less active than 1,25(OH)2D3 in stimulating intestinal calcium transport at very high doses; also recorded: potency less than that of the native hormone at low doses | increased intestinal calcium transport activity at very high doses | can inhibit gene transactivation stimulated by the native hormone; also recorded: antagonistic activity; also recorded: inhibits gene transactivation stimulated by the native hormone | 0.02 | same potency as the native hormone; also recorded: bind the vitamin D receptor | does not effectively promote cellular differentiation | 0.002 |  | In vivo antagonism in combination with native hormone (bone calcium mobilization) (Sprague-Dawley rats [1]; [6]): no antagonism was observed; In vivo antagonism in combination with native hormone (intestinal calcium transport) (Sprague-Dawley rats [2]; [6]): no antagonism was observed; Concentrations showing inhibition of gene transactivation ([3]; antagonist mode): 10^−8-10^−7 M; Times less potent than native hormone in increasing transcription of the 24-hydroxylase gene ([3]; bone cells, versus 1,25(OH)2D3): ~60 times; 24-hydroxylase transcription potency relative to CN-67 (ratio of relative activities) ([3]; versus CN-67, bone cells): ≈ 3; 24-hydroxylase transcription potency relative to OU-72 (ratio of relative activities) ([3]; versus OU-72, bone cells): 2; 24OHase Transcription, antagonism [3, 7]: Antagonistic; Concentrations showing inhibition of cellular differentiation (HL-60 cells; antagonist mode): 10^−8-10^−7 M; Inhibition of native hormone-induced HL-60 differentiation (HL-60 cells; combined with 1,25(OH)2D3): potent inhibitor of the native hormone; also recorded: antagonistic activity; HL-60 potency relative to CN-67 (ratio of relative activities) (HL-60 cells; versus CN-67): ≈ 0.03; HL-60 potency relative to OU-72 (ratio of relative activities) (HL-60 cells; versus OU-72): ≈ 0.007; HL-60 Differentiation, antagonism (HL-60 cells; [7]): Antagonistic |
|  |  |  |  |  | C=C1C(O)CC(=CC=C2CCCC3(C)C2CCC3C(C)C=CC(O)C2(C(=O)OCCCC)CC2)CC1O [OU-72, (22E)-(24R)-25-carbobutoxy-2-methylene-26,27-cyclo-22-dehydro-1α,24-dihydroxy-19-norvitamin D3] |  |  |  |  |  |  |  |  | 0.023 nM |  |
|  |  |  |  |  | C=C1C(O)CC(=CC=C2CCCC3(C)C2CCC3C(C)C=CC(OCCCC)C2(C(=O)OCCCC)CC2)CC1O [CN-67, (22E)-(24R)-24-butoxy-25-carbobutoxy-2-methylene-26,27-cyclo-22-dehydro-1α-hydroxy-19-norvitamin D3] |  |  |  |  |  |  |  |  | 1.5 nM |  |
